# Measurements reported in ChEMBL document CHEMBL2086238, “Identification of ETP-46321, a potent and orally bioavailable PI3K α, δ inhibitor” (Bioorg Med Chem Lett, 2012).
# Tests used:
# [1] = test system: Serine/threonine-protein kinase B-raf (Homo sapiens), P15056 [V600E]; assay: Inhibition of BRAF V600E mutant at 1 uM
# [2] = target: Dual specificity tyrosine-phosphorylation-regulated kinase 1A (Homo sapiens) (UniProt Q13627); assay: Inhibition of DYRK1A at 1 uM
# [3] = target: Focal adhesion kinase 1 (Homo sapiens) (UniProt Q05397); assay: Inhibition of FAK at 1 uM
# Focal adhesion kinase 1 (Homo sapiens), sequence (Q05397 2-1052 limits assumed): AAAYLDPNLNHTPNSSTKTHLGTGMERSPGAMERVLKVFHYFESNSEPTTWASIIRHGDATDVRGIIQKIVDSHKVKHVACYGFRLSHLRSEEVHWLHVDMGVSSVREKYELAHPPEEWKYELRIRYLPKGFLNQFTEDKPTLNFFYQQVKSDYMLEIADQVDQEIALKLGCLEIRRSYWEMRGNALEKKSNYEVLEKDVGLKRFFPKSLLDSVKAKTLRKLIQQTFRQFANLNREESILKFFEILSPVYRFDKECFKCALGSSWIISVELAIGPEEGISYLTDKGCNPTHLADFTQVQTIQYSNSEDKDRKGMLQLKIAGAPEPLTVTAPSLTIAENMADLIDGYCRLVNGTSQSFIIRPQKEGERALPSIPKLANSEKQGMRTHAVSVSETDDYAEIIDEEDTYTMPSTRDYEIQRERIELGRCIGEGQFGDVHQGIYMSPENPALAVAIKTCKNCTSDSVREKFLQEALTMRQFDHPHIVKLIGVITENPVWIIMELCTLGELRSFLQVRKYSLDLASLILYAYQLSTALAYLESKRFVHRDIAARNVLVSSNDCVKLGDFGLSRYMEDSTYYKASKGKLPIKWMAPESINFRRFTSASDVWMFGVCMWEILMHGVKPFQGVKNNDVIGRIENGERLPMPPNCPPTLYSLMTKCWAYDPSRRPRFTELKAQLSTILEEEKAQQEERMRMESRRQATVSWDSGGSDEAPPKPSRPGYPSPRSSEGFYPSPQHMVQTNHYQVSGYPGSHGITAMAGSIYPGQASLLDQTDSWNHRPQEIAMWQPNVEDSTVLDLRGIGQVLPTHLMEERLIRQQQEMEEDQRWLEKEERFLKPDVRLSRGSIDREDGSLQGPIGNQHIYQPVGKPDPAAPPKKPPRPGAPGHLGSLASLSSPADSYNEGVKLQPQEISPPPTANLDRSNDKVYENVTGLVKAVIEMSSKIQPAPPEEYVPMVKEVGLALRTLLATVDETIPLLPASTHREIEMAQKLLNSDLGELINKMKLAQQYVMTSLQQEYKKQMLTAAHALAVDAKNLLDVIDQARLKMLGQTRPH
# [4] = target: Insulin receptor (Homo sapiens) (UniProt P06213); assay: Inhibition of INSR at 1 uM
# [5] = target: Mitogen-activated protein kinase 8 (Homo sapiens) (UniProt P45983); assay: Inhibition of JNK1 at 1 uM
# [6] = target: Mast/stem cell growth factor receptor Kit (Homo sapiens) (UniProt P10721); assay: Inhibition of KIT at 1 uM
# Mast/stem cell growth factor receptor Kit (Homo sapiens), sequence (P10721 whole entry): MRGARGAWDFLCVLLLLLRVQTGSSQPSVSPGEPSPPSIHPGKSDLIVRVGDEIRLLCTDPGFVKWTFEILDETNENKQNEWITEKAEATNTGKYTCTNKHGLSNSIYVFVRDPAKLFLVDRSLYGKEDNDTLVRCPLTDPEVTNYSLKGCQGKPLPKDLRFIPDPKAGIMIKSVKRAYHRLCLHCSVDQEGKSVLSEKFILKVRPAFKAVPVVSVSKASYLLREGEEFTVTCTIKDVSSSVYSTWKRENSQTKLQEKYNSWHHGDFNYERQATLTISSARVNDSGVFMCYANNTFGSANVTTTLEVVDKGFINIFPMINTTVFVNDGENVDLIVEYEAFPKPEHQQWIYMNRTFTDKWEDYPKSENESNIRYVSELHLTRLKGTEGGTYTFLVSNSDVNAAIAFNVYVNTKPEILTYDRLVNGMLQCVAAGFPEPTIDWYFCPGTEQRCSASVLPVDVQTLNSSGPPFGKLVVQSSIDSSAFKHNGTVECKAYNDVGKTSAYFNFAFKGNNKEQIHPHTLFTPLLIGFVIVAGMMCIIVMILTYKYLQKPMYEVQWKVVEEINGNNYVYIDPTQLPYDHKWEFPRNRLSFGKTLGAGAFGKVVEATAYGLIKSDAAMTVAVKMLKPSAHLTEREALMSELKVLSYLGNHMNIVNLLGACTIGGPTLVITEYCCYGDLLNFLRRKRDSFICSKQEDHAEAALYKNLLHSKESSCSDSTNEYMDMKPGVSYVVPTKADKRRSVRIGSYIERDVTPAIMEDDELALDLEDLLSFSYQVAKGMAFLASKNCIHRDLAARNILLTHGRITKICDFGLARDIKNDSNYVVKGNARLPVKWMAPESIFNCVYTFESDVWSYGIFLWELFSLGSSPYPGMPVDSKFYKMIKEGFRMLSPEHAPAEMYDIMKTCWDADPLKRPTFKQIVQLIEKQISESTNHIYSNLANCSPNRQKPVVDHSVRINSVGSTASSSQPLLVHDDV
# [7] = target: Serine/threonine-protein kinase PAK 1 (Homo sapiens) (UniProt Q13153); assay: Inhibition of PAK1 at 1 uM
# Serine/threonine-protein kinase PAK 1 (Homo sapiens), sequence (Q13153 whole entry): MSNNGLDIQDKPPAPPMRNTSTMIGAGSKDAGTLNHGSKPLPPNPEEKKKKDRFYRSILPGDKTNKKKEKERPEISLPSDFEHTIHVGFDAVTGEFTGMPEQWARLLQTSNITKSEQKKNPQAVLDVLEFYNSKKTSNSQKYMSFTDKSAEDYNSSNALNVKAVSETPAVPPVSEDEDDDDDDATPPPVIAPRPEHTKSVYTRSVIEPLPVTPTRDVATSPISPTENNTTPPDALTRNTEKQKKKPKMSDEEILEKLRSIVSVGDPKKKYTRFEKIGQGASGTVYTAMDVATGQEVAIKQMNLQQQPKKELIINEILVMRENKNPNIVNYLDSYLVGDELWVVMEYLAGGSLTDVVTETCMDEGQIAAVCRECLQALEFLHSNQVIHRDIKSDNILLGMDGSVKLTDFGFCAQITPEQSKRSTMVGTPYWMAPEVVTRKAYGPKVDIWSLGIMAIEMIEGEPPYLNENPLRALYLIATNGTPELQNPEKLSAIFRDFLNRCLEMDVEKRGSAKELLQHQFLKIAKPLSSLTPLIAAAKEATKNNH
# [8] = Inhibition of PDGFR at 1 uM
# [9] = target: Serine/threonine-protein kinase pim-1 (Homo sapiens) (UniProt P11309); assay: Inhibition of PIM1 at 1 uM
# [10] = target: Serine/threonine-protein kinase pim-2 (Homo sapiens) (UniProt Q9P1W9); assay: Inhibition of PIM2 at 1 uM
# Serine/threonine-protein kinase pim-2 (Homo sapiens), sequence (Q9P1W9 whole entry, looked up): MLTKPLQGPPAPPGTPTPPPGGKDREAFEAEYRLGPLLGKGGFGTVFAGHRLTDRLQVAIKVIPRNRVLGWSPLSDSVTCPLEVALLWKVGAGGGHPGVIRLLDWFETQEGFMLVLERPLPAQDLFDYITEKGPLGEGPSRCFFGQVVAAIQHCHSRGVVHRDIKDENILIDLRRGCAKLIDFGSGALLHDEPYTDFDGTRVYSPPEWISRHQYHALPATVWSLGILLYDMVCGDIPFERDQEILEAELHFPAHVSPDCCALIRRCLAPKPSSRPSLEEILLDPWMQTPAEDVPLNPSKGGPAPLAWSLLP
# [11] = target: Ribosomal protein S6 kinase alpha-1 (Homo sapiens) (UniProt Q15418); assay: Inhibition of RPS6KA1 at 1 uM
# Ribosomal protein S6 kinase alpha-1 (Homo sapiens), sequence (Q15418 whole entry, canonical isoform): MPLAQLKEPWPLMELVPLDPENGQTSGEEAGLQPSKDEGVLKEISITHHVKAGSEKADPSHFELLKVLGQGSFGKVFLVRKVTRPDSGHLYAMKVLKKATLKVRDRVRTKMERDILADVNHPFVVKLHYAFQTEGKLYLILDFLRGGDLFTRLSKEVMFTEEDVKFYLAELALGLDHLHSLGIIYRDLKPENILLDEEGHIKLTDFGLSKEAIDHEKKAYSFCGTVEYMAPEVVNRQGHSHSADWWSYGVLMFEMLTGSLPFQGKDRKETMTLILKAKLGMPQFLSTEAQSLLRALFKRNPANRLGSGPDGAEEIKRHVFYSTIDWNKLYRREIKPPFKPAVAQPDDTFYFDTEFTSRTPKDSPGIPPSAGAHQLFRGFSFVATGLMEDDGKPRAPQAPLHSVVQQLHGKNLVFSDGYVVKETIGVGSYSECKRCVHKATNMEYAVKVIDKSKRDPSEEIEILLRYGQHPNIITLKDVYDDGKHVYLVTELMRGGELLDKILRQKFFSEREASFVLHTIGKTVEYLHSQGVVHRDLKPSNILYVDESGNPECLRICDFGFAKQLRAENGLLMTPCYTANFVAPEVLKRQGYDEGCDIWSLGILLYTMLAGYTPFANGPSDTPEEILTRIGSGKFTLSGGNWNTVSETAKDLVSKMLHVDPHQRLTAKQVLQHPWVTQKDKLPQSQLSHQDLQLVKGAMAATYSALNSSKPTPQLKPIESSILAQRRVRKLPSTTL
# [12] = target: T1, NUAK family SNF1-like kinase 1 (Homo sapiens) (UniProt O60285); assay: Inhibition of ARK5 at 5 uM
# T1 sequence (whole entry): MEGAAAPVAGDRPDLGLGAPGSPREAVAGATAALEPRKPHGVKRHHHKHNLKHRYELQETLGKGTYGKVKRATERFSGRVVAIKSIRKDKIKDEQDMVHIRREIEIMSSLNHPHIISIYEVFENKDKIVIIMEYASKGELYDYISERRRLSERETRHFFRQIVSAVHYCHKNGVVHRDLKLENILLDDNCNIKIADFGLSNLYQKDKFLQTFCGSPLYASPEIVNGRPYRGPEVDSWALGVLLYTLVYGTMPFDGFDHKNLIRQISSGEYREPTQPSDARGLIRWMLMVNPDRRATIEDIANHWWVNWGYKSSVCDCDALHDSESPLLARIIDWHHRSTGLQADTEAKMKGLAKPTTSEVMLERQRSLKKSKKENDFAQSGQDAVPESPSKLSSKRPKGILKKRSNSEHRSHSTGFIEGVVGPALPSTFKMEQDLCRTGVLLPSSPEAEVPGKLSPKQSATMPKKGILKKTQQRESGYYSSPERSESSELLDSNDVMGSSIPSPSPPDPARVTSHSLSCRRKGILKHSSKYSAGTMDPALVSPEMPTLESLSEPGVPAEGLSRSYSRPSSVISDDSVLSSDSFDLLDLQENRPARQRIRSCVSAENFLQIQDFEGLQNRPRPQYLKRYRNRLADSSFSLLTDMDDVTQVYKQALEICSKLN
# [13] = test system: Serine/threonine-protein kinase B-raf (Homo sapiens), P15056 [V600E]; assay: Inhibition of BRAF V600E mutant at 5 uM
# [14] = target: Insulin receptor (Homo sapiens) (UniProt P06213); assay: Inhibition of INSR at 5 uM
# [15] = target: Mitogen-activated protein kinase 8 (Homo sapiens) (UniProt P45983); assay: Inhibition of JNK1 at 5 uM
# [16] = target: Mast/stem cell growth factor receptor Kit (Homo sapiens) (UniProt P10721); assay: Inhibition of KIT at 5 uM
# [17] = target: Hepatocyte growth factor receptor (Homo sapiens) (UniProt P08581); assay: Inhibition of MET at 5 uM
# [18] = target: T2, Serine/threonine-protein kinase 4 (Homo sapiens) (UniProt Q13043); assay: Inhibition of MST1 at 5 uM
# T2 sequence (whole entry): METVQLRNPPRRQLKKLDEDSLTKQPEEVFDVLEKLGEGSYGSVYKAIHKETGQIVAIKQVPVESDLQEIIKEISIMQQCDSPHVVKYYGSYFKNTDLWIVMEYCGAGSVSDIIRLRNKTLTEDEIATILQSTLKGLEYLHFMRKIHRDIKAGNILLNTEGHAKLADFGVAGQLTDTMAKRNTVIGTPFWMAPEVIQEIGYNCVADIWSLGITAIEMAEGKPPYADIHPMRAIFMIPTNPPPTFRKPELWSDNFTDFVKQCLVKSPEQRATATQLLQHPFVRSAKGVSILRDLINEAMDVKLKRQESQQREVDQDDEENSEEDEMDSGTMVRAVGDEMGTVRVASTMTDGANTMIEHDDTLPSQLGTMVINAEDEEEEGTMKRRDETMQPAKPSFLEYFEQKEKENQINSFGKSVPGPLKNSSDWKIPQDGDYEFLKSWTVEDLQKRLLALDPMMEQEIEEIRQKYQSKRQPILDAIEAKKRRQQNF
# [19] = target: Serine/threonine-protein kinase PAK 1 (Homo sapiens) (UniProt Q13153); assay: Inhibition of PAK1 at 5 uM
# [20] = target: Serine/threonine-protein kinase pim-1 (Homo sapiens) (UniProt P11309); assay: Inhibition of PIM1 at 5 uM
# [21] = target: Ribosomal protein S6 kinase alpha-1 (Homo sapiens) (UniProt Q15418); assay: Inhibition of RPS6KA1 at 5 uM
# [22] = target: Phosphatidylinositol 4,5-bisphosphate 3-kinase catalytic subunit alpha isoform (Homo sapiens, UniProt P42336); assay: Inhibition of PI3Kalpha in human U2OS cells assessed as inhibition of AKT Ser 473 phosphorylation by Western blot; assay type: cell-based
# [23] = Stability in mouse liver microsomes at 1 uM incubated for 15 mins; assay type: ADME, Microsome; conditions: read-out: Stability
# CYP1A2 = target: T3, CYP1A2 (Homo sapiens, UniProt P05177); assay: Inhibition of CYP1A2 at 10 uM; assay type: ADME
# T3 sequence (P05177 whole entry): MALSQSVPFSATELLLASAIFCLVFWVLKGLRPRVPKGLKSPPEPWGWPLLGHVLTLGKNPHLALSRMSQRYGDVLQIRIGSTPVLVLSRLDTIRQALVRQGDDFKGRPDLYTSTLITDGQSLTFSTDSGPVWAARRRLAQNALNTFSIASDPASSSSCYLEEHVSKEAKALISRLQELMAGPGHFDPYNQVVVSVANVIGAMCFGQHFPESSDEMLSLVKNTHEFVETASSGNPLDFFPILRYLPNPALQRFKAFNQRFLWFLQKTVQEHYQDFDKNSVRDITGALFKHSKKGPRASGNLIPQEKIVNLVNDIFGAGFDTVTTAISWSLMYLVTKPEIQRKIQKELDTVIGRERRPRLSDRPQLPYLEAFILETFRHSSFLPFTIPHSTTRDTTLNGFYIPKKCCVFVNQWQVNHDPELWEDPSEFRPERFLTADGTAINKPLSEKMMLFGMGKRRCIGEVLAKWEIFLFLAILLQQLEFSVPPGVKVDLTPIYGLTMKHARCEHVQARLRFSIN
# CYP2C19 = CYP2C19 (Homo sapiens, UniProt P33261); assay: Inhibition of CYP2C19 at 10 uM; assay type: ADME
# CYP3A4 = CYP3A4 (Homo sapiens, UniProt P08684); assay: Inhibition of CYP3A4 at 10 uM; assay type: ADME
# CYP3A4, sequence (P08684 whole entry): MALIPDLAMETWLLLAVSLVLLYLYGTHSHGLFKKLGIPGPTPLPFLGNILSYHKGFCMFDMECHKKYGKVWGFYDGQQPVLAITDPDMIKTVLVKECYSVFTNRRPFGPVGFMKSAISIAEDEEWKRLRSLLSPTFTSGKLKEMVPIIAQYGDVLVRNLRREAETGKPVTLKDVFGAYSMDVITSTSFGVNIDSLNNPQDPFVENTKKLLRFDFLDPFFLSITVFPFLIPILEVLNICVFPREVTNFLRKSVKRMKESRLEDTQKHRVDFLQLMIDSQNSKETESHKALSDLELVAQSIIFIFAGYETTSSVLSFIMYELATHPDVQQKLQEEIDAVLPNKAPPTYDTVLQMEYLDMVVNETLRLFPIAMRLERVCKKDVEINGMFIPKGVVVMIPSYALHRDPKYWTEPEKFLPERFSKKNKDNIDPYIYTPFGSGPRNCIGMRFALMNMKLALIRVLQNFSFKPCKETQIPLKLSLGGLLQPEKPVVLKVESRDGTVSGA
# [24] = target: Serine/threonine-protein kinase mTOR (Homo sapiens, UniProt P42345); assay: Inhibition of mTOR
# Serine/threonine-protein kinase B-raf (Homo sapiens), P15056 [V600E], sequence (P15056 whole entry V600E): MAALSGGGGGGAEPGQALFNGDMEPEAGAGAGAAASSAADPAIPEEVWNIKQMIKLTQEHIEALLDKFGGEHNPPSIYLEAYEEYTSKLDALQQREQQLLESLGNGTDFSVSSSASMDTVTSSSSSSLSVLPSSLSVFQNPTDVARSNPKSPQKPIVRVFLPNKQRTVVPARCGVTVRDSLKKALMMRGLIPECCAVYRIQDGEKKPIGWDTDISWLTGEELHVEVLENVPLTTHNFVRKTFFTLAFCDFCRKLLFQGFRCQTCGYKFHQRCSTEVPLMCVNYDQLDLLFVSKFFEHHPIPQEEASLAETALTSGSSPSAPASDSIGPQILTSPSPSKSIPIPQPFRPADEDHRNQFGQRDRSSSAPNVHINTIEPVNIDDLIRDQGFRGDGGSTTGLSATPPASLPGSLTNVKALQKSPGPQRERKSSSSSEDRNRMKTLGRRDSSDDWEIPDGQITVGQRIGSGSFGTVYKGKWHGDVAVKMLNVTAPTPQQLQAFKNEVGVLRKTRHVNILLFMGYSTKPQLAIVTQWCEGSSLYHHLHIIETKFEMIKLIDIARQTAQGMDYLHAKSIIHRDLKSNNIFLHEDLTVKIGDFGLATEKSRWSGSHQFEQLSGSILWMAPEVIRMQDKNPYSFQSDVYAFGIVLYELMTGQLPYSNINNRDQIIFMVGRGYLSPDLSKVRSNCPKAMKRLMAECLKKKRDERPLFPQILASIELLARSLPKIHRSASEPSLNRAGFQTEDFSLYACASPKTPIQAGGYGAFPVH
SMILES,inhibition [1] [%],inhibition [2] [%],inhibition [3] [%],inhibition [4] [%],inhibition [5] [%],inhibition [6] [%],inhibition [7] [%],inhibition [8] [%],inhibition [9] [%],inhibition [10] [%],inhibition [11] [%],inhibition [12] [%],inhibition [13] [%],inhibition [14] [%],inhibition [15] [%],inhibition [16] [%],inhibition [17] [%],inhibition [18] [%],inhibition [19] [%],inhibition [20] [%],further results
Cc1nc(N)ncc1-c1cn2cc(CN3CCN(S(C)(=O)=O)CC3)nc2c(N2CCOCC2)n1,< 30,< 30,< 30,< 30,< 30,< 30,< 30,< 30,< 30,< 30,< 30,< 30,< 30,< 30,< 30,< 30,< 30,< 30,< 30,< 30,inhibition [21]: < 30%
CS(=O)(=O)N1CCN(Cc2nc3c(N4CCOCC4)nc(-c4cnc(N)nc4)cn3c2Br)CC1,< 30,< 30,< 30,< 30,< 30,< 30,< 30,< 30,< 30,< 30,< 30,< 30,< 30,< 30,< 30,< 30,< 30,< 30,< 30,< 30,"IC50 [22]: 8.1 nM; remaining at 0.25 h, 1 µM [23]: 43%; inhibition at 10 µM (CYP1A2): < 30%; inhibition at 10 µM (CYP2C19): < 30%; inhibition at 10 µM (CYP3A4): < 30%; IC50 [24]: 5100 nM; inhibition [21]: < 30%"
CS(=O)(=O)N1CCN(Cc2cn3c(Cl)c(-c4cnc(N)nc4)nc(N4CCOCC4)c3n2)CC1,< 30,< 30,< 30,< 30,< 30,< 30,< 30,< 30,< 30,< 30,< 30,< 30,< 30,< 30,< 30,< 30,< 30,< 30,< 30,< 30,"IC50 [22]: 5.2 nM; remaining at 0.25 h, 1 µM [23]: 91%; inhibition at 10 µM (CYP1A2): < 30%; inhibition at 10 µM (CYP2C19): < 30%; inhibition at 10 µM (CYP3A4): < 30%; IC50 [24]: 5710 nM; inhibition [21]: < 30%"
Cc1c(CN2CCN(S(C)(=O)=O)CC2)nc2c(N3CCOCC3)nc(-c3cnc(N)nc3)cn12,< 30,< 30,< 30,< 30,< 30,< 30,< 30,< 30,< 30,< 30,< 30,< 30,< 30,< 30,< 30,< 30,< 30,< 30,< 30,< 30,"IC50 [22]: 15.4 nM; remaining at 0.25 h, 1 µM [23]: 80%; inhibition at 10 µM (CYP1A2): < 30%; inhibition at 10 µM (CYP2C19): < 30%; inhibition at 10 µM (CYP3A4): < 30%; IC50 [24]: 1260 nM; inhibition [21]: < 30%"
CS(=O)(=O)N1CCN(Cc2cn3cc(-c4cnc(N)nc4)nc(N4CCOCC4)c3n2)CC1,< 30,< 30,< 30,< 30,< 30,< 30,< 30,< 30,< 30,< 30,< 30,< 30,< 30,< 30,< 30,< 30,< 30,< 30,< 30,< 30,"remaining at 0.25 h, 1 µM [23]: 88%; inhibition at 10 µM (CYP1A2): < 30%; inhibition at 10 µM (CYP2C19): < 30%; inhibition at 10 µM (CYP3A4): < 30%; IC50 [24]: 4880 nM; inhibition [21]: < 30%"
